Results taken from patent publication US10426762B2, “Inhibitors of hepatitis C virus polymerase” (COCRYSTAL DISCOVERY, INC., priority 2012, dated 2019).

These compounds were tested on HCV1b replicon (assay: HCV replicon assay (Huh-7 cell line with HCV1b replicon containing luciferase reporter) and EC50 determination). Details: Hepatitis C virus; Table 1; Huh-7 HCV1b replicon luciferase reporter, 72 hr, triplicate.
Assay type: cell-based
Description: Example 213—HCV Replicon Assay and EC50 Determination
The antiviral activity of compounds against hepatitis C virus was determined by a hepatitis C virus replicon reporter cell line developed by Bartenschlager (Lohmann et al., Science 1999, 285:110-113; Bartenschlager et al., Antiviral Res 2003, 60:91-102). This cell-based assay utilized a liver cell carcinoma (Huh-7) cell line stably transformed with an HCV1b replicon containing a luciferase reporter gene. Varied concentrations of compounds were added to the reporter cell line, and further incubated at 37° C. for 72 hr in DMEM supplemented with 10% FCS. The inhibitory effects of experimental compounds or the reference compound, interferon alpha (INFα), on HCV replication were measured by luciferase activity using the Britelite™ plus luminescence reporter gene kit (Perkin Elmer, Shelton, Conn.). The Britelite plus reagent was added to the 96-well plates containing the HCV reporter cells, and luminescence was measured within 15 min using a Wallac 1450 Microbeta® Trilux liquid scintillation counter. EC50 values were calculated using GraFit 6 and GraphPad Prism 5 from triplicate HCV replicon assays.

Compound	EC50 [µM]
CN1CCC(C2CCC(F)(F)CC2)=C(c2cc(-c3ccc(NC(=O)c4cscn4)cc3)sc2C(=O)O)C1 [Example 200, 3-(4-(4,4-difluorocyclohexyl)-1-methyl-1,2,5,6-tetrahydropyridin-3-yl)-5-(4-(thiazole-4-carboxamido)phenyl)thiophene-2-carboxylic acid]	3 to 10

Same assay, conditions: Hepatitis C virus; Table 2; Huh-7 HCV1b replicon luciferase reporter, 72 hr, triplicate

Compound	EC50 [µM]
CC1CCC(C2=C(c3cc(-c4ccc(NC(=O)c5cscn5)cc4)sc3C(=O)O)CN(CC(O)CO)CC2)CC1 (stereo not shown) [Example 190, 3-(1-(2,3-dihydroxypropyl)-4-(4-methylcyclohexyl)-1,2,5,6-tetrahydropyridin-3-yl)-5-(4-(thiazole-4-carboxamido)phenyl)thiophene-2-carboxylic acid]	< 3

What follows are compounds tested against T1, HCV1b NS5B polymerase delta 21 (Hepatitis C virus genotype 1b, UniProt P26663) (assay: RNA-dependent RNA HCV NS5B (polymerase) assay and IC50 determination). Details: not given.
T1 construct: purified HCV1b NS5B polymerase delta 21
T1 sequence (P26663 2420-2989): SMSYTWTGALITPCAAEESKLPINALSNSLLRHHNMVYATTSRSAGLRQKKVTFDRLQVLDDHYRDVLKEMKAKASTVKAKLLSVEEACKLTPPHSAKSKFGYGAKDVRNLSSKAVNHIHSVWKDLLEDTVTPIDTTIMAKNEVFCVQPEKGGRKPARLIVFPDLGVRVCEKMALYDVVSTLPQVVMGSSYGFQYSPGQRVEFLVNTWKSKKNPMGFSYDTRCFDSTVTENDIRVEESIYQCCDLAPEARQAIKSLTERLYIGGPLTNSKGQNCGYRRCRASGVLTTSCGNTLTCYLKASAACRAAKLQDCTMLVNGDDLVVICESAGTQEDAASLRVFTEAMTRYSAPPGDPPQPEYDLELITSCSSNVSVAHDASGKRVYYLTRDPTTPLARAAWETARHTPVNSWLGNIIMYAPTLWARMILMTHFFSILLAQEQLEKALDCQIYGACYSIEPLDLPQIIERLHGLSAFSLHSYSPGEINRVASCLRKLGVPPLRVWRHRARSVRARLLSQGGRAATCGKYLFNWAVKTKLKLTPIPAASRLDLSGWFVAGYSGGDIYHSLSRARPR
Assay type: biochemical
Description: Example 212—RNA-Dependent RNA HCV NS5B (Polymerase) Assay and IC50 Determination
In vitro RNA-dependent RNA polymerase activity was determined in a reaction mixture (50 μL) containing 50 mM Tris-HCl, pH 7.5, 5 mM MgCl2, 1 mM dithiothreitol, 0.5% Triton® X-100, 10 μM of UTP, 0.1-0.5 μCi of α-^32P UTP (Perkin Elmer Life Sciences), 1 μg of polyA:U16 (Midland Oligo), and 0.6 μg of purified HCV1b NS5B polymerase delta 21. Different concentrations of compounds were added to the reaction mixtures. The reaction was carried out at RT (23° C.) for 60 min and then stopped by the addition of 100 μL of 50 mM EDTA. The reaction mixtures were filtered through either a DE81 membrane or a positively charged nylon membrane, and the membranes were then extensively washed with 30 mM sodium citrate, pH 7.0 and 300 mM NaCl. The radiolabeled RNA products were quantitated using a Storm™ PhosphorImager™ (GE life Sciences). IC50 values were calculated using GraFit 6 and GraphPad Prism 5 from triplicate assays.

Compound	IC50 [µM]
CC1CCC(C2=C(c3cc(-c4ccc(NC(=O)c5cscn5)cc4)sc3C(=O)O)CCN(Cc3cnn(C)c3)C2)CC1 (stereo not shown) [Example 186, 3-(1-((1-methyl-1H-pyrazol-4-yl)methyl)-5-(4-methylcyclohexyl)-1,2,3,6-tetrahydropyridin-4-yl)-5-(4-(thiazole-4-carboxamido)phenyl)thiophene-2-carboxylic acid]	< 3
Cc1cc(-c2cc(C3=C(C4CCC(C)CC4)CN(C)CC3)c(C(=O)O)s2)ccc1-c1cc2ncccn2n1 (stereo not shown) [Example 187, 5-(3-methyl-4-(pyrazolo[1,5-a]pyrimidin-2-yl)phenyl)-3-(1-methyl-5-(4-methylcyclohexyl)-1,2,3,6-tetrahydropyridin-4-yl)thiophene-2-carboxylic acid]	< 3
CC1CCC(C2=C(c3cc(-c4ccc(NC(=O)c5cscn5)cc4)sc3C(=O)O)CN(CC3COC(C)(C)O3)CC2)CC1 (stereo not shown) [Example 189, 3-(1-((2,2-dimethyl-1,3-dioxolan-4-yl)methyl)-4-(4-methylcyclohexyl)-1,2,5,6-tetrahydropyridin-3-yl)-5-(4-(thiazole-4-carboxamido)phenyl)thiophene-2-carboxylic acid]	< 3
CC1CCC(C2=C(c3cc(-c4ccc(NC(=O)c5cscn5)cc4)sc3C(=O)O)CN(CC(O)CO)CC2)CC1 (stereo not shown) [Example 190, 3-(1-(2,3-dihydroxypropyl)-4-(4-methylcyclohexyl)-1,2,5,6-tetrahydropyridin-3-yl)-5-(4-(thiazole-4-carboxamido)phenyl)thiophene-2-carboxylic acid]	< 3
CC1CCC(C2=C(c3cc(-c4ccc(NC(=O)c5cscn5)c(F)c4)sc3C(=O)O)CN(C)CC2)CC1 (stereo not shown) [Example 198]	< 3
Cc1cc(-c2cc(C3=C(C4CCC(C)CC4)CCN(Cc4cnn(C)c4)C3)c(C(=O)O)s2)ccc1NC(=O)c1cscn1 (stereo not shown) [Example 199, 3-(1-((1-methyl-1H-pyrazol-4-yl)methyl)-4-(4-methylcyclohexyl)-1,2,5,6-tetrahydropyridin-3-yl)-5-(3-methyl-4-(thiazole-4-carboxamido)phenyl)thiophene-2-carboxylic acid]	< 3
CN1CCC(C2CCC(F)(F)CC2)=C(c2cc(-c3ccc(NC(=O)c4cscn4)cc3)sc2C(=O)O)C1 [Example 200, 3-(4-(4,4-difluorocyclohexyl)-1-methyl-1,2,5,6-tetrahydropyridin-3-yl)-5-(4-(thiazole-4-carboxamido)phenyl)thiophene-2-carboxylic acid]	< 3
CC1CCC(C2=C(c3cc(-c4ccc(N)nc4)sc3C(=O)O)CCN(C)C2)CC1 (stereo not shown) [Example 203, 5-(6-aminopyridin-3-yl)-3-(1-methyl-5-(4-methylcyclohexyl)-1,2,3,6-tetrahydropyridin-4-yl)thiophene-2-carboxylic acid]	< 3
CN1CCC(c2cc(-c3ccccc3)sc2C(=O)O)=C(C2CCCCCC2)C1 [Example 206, 3-(5-Cycloheptyl-1-methyl-1,2,3,6-tetrahydro-pyridin-4-yl)-5-phenyl-thiophene-2-carboxylic acid]	< 3
CN1CCC(c2cc(-c3ccccc3)sc2C(=O)O)=C(C2CCCC2)C1 [Example 207, 3-(5-Cyclopentyl-1-methyl-1,2,3,6-tetrahydro-pyridin-4-yl)-5-phenyl-thiophene-2-carboxylic acid]	3 to 10
CN1CCC(c2cc(-c3ccccc3)sc2C(=O)O)=C(c2ccc(Cl)cc2)C1 [Example 208, 3-[5-(4-Chloro-phenyl)-1-methyl-1,2,3,6-tetrahydro-pyridin-4-yl]-5-phenyl-thiophene-2-carboxylic acid]	> 10
CCCCCC1=C(c2cc(-c3ccccc3)sc2C(=O)O)CCN(C)C1 [Example 209, 3-(1-Methyl-5-pentyl-1,2,3,6-tetrahydro-pyridin-4-yl)-5-phenyl-thiophene-2-carboxylic acid]	3 to 10
CN1CCC(C2CCCCC2)=C(c2cc(-c3ccc(NC(=O)c4cscn4)cc3)sc2C(=O)O)C1 [Example 210, 3-(4-Cyclohexyl-1-methyl-1,2,5,6-tetrahydro-pyridin-3-yl)-5-{4-[(thiazole-4-carbonyl)-amino]-phenyl}-thiophene-2-carboxylic acid]	< 3
CN1CCC(c2cc(C#CC(C)(C)C)sc2C(=O)O)=C(C2CCCCC2)C1 [Example 211, 3-(5-Cyclohexyl-1-methyl-1,2,3,6-tetrahydro-pyridin-4-yl)-5-(3,3-dimethyl-but-1-ynyl)-thiophene-2-carboxylic acid]	< 3
